These results are taken from PubChem BioAssay (NCI).

Among the test systems are DU-145 prostate; MCF7 breast; EKVX NSCLC; MALME-3M melanoma; A498 renal; TK-10 renal; SK-OV-3 ovarian; MOLT-4 leukemia.
Holding throughout (assay): NCI-60 cell line screen, 48 h

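Values below derive from 48-hour exposures of cells grown in 96-well plates, with endpoints linearly interpolated between the two concentrations bracketing the appropriate inhibition level. Here, GI50 denotes the concentration required for 50% inhibition of growth. TGI marks complete inhibition of growth.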

As to `CCc1ncc(CO)n1Cc1cccc2ccccc12`, the TGI with DU-145 prostate, with MCF7 breast, with EKVX NSCLC, with MALME-3M melanoma, in the assay with A498 renal and with TK-10 renal was more than 100 µM in each case. For the same molecule, the TGI with SK-OV-3 ovarian was more than 100 µM.
For `CC(C)C1=CC2=C(C(=O)C1=O)C13CCCC(C)(C)C1CC2OC3=O` (stereo unspecified), the TGI with DU-145 prostate came to 44.9 µM; in the assay with MOLT-4 leukemia it was 32.7 µM; in the assay with MCF7 breast, 55.5 µM; with EKVX NSCLC, 31.7 µM; in the assay on A498 renal, 52.2 µM; with TK-10 renal, 28.6 µM. This molecule came in with a TGI with SK-OV-3 ovarian of more than 100 µM.
For the molecule `CC1(C)C(CC(=O)O)CCCC1CC(=O)O` (stereo unspecified), the TGI in the assay with DU-145 prostate, in the assay on MOLT-4 leukemia, with MCF7 breast, with EKVX NSCLC, with A498 renal and in the assay on TK-10 renal was more than 100 µM in each case. Moreover, the TGI in the assay on SK-OV-3 ovarian is more than 100 µM.
Turning to `CC/C(=C(/c1ccc(OCCN(C)C)cc1)c1ccc(OC(=O)CCCCCCCCC(=O)c2c(C)[nH]c(/C=C3\N=C(c4ccc[nH]4)C=C3OC)c2C)cc1)c1ccccc1`, the GI50 was 8.06 µM in the assay with DU-145 prostate; 5.13 µM in the assay on MOLT-4 leukemia; 0.161 µM with MCF7 breast; 40.7 µM in the assay with MALME-3M melanoma; 15 µM with A498 renal; 21 µM in the assay with TK-10 renal. The GI50 in the assay with SK-OV-3 ovarian is more than 100 µM. In addition, the TGI is more than 100 µM in the assay on DU-145 prostate; more than 100 µM in the assay with MOLT-4 leukemia; 10.9 µM with MCF7 breast; more than 100 µM in the assay on MALME-3M melanoma; 72 µM in the assay on A498 renal; more than 100 µM in the assay with TK-10 renal. The TGI with SK-OV-3 ovarian was more than 100 µM.
With `CCn1ncc(N=O)c1N`, the TGI in the assay with DU-145 prostate, with MOLT-4 leukemia, in the assay on MCF7 breast, in the assay with EKVX NSCLC and in the assay with TK-10 renal was more than 100 µM in each case.
In the case of `CCN(CC)CC(O)c1cc(-c2ccc(Cl)cc2)nc2c(C)c(Cl)ccc12` (stereo unspecified), the GI50 in the assay with DU-145 prostate was 1.7 µM; with MCF7 breast, 1.5 µM; in the assay on EKVX NSCLC, 1.46 µM; with MALME-3M melanoma, 1.93 µM; in the assay on TK-10 renal it was 1.85 µM; in the assay on SK-OV-3 ovarian, 1.71 µM. In addition, the TGI in the assay on DU-145 prostate turned out to be 3.08 µM; in the assay with MCF7 breast, 2.9 µM; in the assay on EKVX NSCLC, 2.9 µM; in the assay with MALME-3M melanoma, 3.98 µM; in the assay with TK-10 renal, 3.28 µM; in the assay on SK-OV-3 ovarian, 3.28 µM.
Consider `CO/C(=C1/NC(=O)C(Cc2ccc(O)c(Br)c2)N(C)C(=O)C(C)NC(=O)CCC/C=C(\C)CCC(C)OC1=O)c1ccccc1` (stereo unspecified), for which the GI50 with DU-145 prostate was less than 0.0185 µM; with MOLT-4 leukemia, 0.119 µM; in the assay with MCF7 breast, less than 0.0165 µM; in the assay on EKVX NSCLC it was 0.0425 µM; in the assay on MALME-3M melanoma, 0.0319 µM; in the assay on A498 renal, 0.0174 µM. Further, the GI50 in the assay on SK-OV-3 ovarian is 0.0245 µM. Also, the TGI with DU-145 prostate was 1.73 µM; with MOLT-4 leukemia, more than 100 µM; in the assay with MCF7 breast, 1.9 µM; in the assay with MALME-3M melanoma, 0.123 µM; with A498 renal it was 0.0357 µM; in the assay on SK-OV-3 ovarian, 0.0662 µM.
Regarding `CN(C)C1CN(C(=O)c2cc(-c3ccc4ncnc(N5CCc6cc(F)c(Cl)cc65)c4c3)cnc2N)C1`, the GI50 is 0.594 µM in the assay with DU-145 prostate; 0.303 µM in the assay with MCF7 breast; 0.453 µM in the assay on MALME-3M melanoma; 0.254 µM in the assay on A498 renal; 0.786 µM in the assay with TK-10 renal; 1.17 µM with SK-OV-3 ovarian. Moreover, the TGI in the assay with DU-145 prostate is more than 100 µM; in the assay with MCF7 breast, more than 100 µM; with MALME-3M melanoma, 3.66 µM; with A498 renal, 0.832 µM; in the assay on TK-10 renal, 4.95 µM; with SK-OV-3 ovarian it was more than 100 µM.
Regarding `COC(=O)c1cccc(NC(=O)c2ccc(NC3=C(Cl)C(=O)N(Cc4ccccc4)C3=O)cc2)c1`, the GI50 with DU-145 prostate is 7.9 µM; in the assay with MOLT-4 leukemia, 12.5 µM; in the assay on MCF7 breast, 22.3 µM; with EKVX NSCLC it was 23.6 µM; in the assay on A498 renal, 26.3 µM; with TK-10 renal it was 23.4 µM. In the assay on SK-OV-3 ovarian, the GI50 was 84 µM. Also, the TGI was determined as 25.2 µM with DU-145 prostate; 56.5 µM in the assay on MOLT-4 leukemia; 49.7 µM in the assay on MCF7 breast; 63.6 µM in the assay on EKVX NSCLC; 73 µM in the assay on A498 renal; 63.4 µM with TK-10 renal. The molecule also showed a TGI in the assay on SK-OV-3 ovarian of more than 100 µM.
`COc1cc(N2CCC(N)CC2)ccc1Nc1ncc(Cl)c(-c2c[nH]c3ccccc23)n1`: the GI50 in the assay on DU-145 prostate is 0.34 µM; with MOLT-4 leukemia it was 1.4 µM; with MCF7 breast, 0.0283 µM; in the assay on A498 renal, 0.123 µM; in the assay with TK-10 renal it was 0.36 µM; in the assay with SK-OV-3 ovarian it was 0.68 µM. Besides, the TGI with DU-145 prostate was 1.88 µM; with MOLT-4 leukemia, 4.86 µM; in the assay with MCF7 breast, 1.41 µM; in the assay on A498 renal, 0.386 µM; in the assay with TK-10 renal it was 1.6 µM; in the assay on SK-OV-3 ovarian it was 2.8 µM.
Regarding `COC(=O)Nc1nc2ccc(C(=O)c3ccc(F)cc3)cc2[nH]1`, the GI50 was 0.298 µM with DU-145 prostate; 0.0867 µM with MCF7 breast; 0.438 µM in the assay with EKVX NSCLC; 0.193 µM in the assay on MALME-3M melanoma; 0.403 µM in the assay on A498 renal; 1.72 µM in the assay with TK-10 renal. Further, the GI50 with SK-OV-3 ovarian is 0.51 µM. Moreover, the TGI in the assay with DU-145 prostate was 0.858 µM; with MCF7 breast it was more than 100 µM; with EKVX NSCLC it was more than 100 µM; with MALME-3M melanoma, 26.9 µM; with A498 renal it was 4.47 µM; in the assay with TK-10 renal it was 58.3 µM. Further, the TGI in the assay with SK-OV-3 ovarian amounted to 11.2 µM.
With `COc1ccc(/C=C/C(=O)/C=C(O)/C=C/c2ccc(OC)c(OC)c2)cc1OC`, the GI50 with DU-145 prostate is 3.72 µM; in the assay on MOLT-4 leukemia, 5.38 µM; in the assay with MCF7 breast, 0.493 µM; in the assay on EKVX NSCLC, 4.13 µM; with MALME-3M melanoma, 3.82 µM; in the assay on TK-10 renal, 4.03 µM. The GI50 with SK-OV-3 ovarian was more than 100 µM. For the same molecule, the TGI with DU-145 prostate, in the assay on MOLT-4 leukemia, in the assay on MCF7 breast, with EKVX NSCLC, in the assay with MALME-3M melanoma and with TK-10 renal was more than 100 µM in each case. This molecule showed a TGI in the assay on SK-OV-3 ovarian of more than 100 µM.
